Test results published in ChEMBL document CHEMBL1152417, “The identification and optimisation of novel and selective diamide neuropeptide Y Y2 receptor antagonists” (Bioorg Med Chem Lett, 2009).

System: Brain
Assay: Drug level in rat brain assessed as tissue binding
Assay type: ADME, tissue-based

Compound | Brain tissue binding (percent bound)
O=C(Nc1ccc(N2CCN(C(=O)c3ccccc3)CC2)c(Cl)c1)C(c1ccccc1)c1ccccn1 (racemic) | 99.7%
CC(C)(C(=O)Nc1ccc(N2CCN(C(=O)c3ccccc3)CC2)c(Cl)c1)c1ccccc1 | 99.5%
O=C(Cc1ccccc1)Nc1ccc(N2CCN(C(=O)c3ccccc3)CC2)c(Cl)c1 | 99%
